According to patent US20080152694A1, “Devices, Systems and Methods for Ophthalmic Drug Delivery” (priority 2006, published 2008):
In brackets after ≈: the same amount, converted by molar mass.

Experiments:
[1] = type: physicochemical; conditions: solid pellets exposed to a continuous stream of vehicle such as Ringer's solution
Procedure: Triamcinolone acetonide is commercially available as a crystalline solid with very low water solubility. If solid pellets of triamcinolone acetonide are exposed to a continuous stream of a vehicle, such as Ringer's solution, the expected concentration of extracted triamcinolone acetonide in solution should be 40 μM or less. A higher concentration of triamcinolone acetonide can be solubilized by including an amphipathic molecule in the vehicle. Such a pharmaceutically acceptable amphipathic molecule would be polysorbate 80 (e.g., TWEEN 80®). The concentration of triamcinolone acetonide solubilized can be increased above its water solubility, 40 μM, by adding the required amount of amphipathic molecule to the vehicle that will support the desired drug concentration. The invention is not limited to methods implemented through use of triamcinolone acetonide, Ringer's solution or polysorbate 80. Any sparingly soluble drug, pharmaceutically acceptable vehicle and pharmaceutically acceptable amphipathic molecule can be used.

[2] = cited from earlier work
[3] = Water solubility of gacyclidine forms; type: physicochemical
Description: (§1) An advantage of using solid drug in an implanted device is, in at least some embodiments, the ability to store drug in the device using a smaller volume than might be required if a premixed (or other liquid) form of the drug were used. In some cases, this smaller volume enables implantation of a device containing enough drug to provide (when combined with an appropriate vehicle source) substantially continuous long term therapy. This long term therapy can be over a period of days, weeks, or months. In some cases, long term therapy may extend over several years. One example of a basic crystalline or solid amorphous drug suitable for use in methods according to some embodiments is gacyclidine. For example, it is estimated that 18 mg of solid gacyclidine eroded with an appropriate vehicle will deliver 100 μM drug over 4 years at a flow rate of 20 microliters per hour or less. […] Dissolution of the basic form of gacyclidine in water requires the presence of an acid (e.g., hydrochloric acid or lactic acid) to convert the basic form to the water-soluble acidic form. The concentration of gacyclidine in solution will therefore depend on the amount of acid available to convert the basic form to the acid form. […]

[4] = Stability of gacyclidine forms in the presence of water; type: physicochemical; conditions: body temperature / in the presence of water
Description: as §1

[5] = Dissolution of gacyclidine base pellets in a continuous flow reactor, eluted with Ringer's solution containing hydrochloric acid; type: physicochemical; conditions: for pH of the eluted drug solution: 20 μL/hr, room temperature (23±2° C.)
Procedure: A drug chamber similar to the one illustrated in FIG. 5 was loaded with 11 pellets of gacyclidine base having a combined mass of 18 mg. This drug-loaded chamber was eluted at a flow rate of 20 μL/hr at room temperature (23±2° C.) using a MiniMed 508 syringe pump (available from Medtronics MiniMed of Northridge, Calif.). The syringe was loaded with 3 mL of Ringer's solution containing 0.05 to 3 mM hydrochloric acid. The eluted volume was collected in PTFE tubing attached to the pump drug capsule assembly, after a 3-D antibacterial filter. The pH of this solution was determined by use of a pH meter equipped with a Calomel electrode. Drug concentration was determined by HPLC.
The highest pH of the eluted drug solution (5.9) was obtained at 0.05 mM hydrochloric acid, and the lowest pH of the eluted drug solution (5.6) was obtained at 3 mM hydrochloric acid. These pH values indicate quantitative conversion of the hydrochloric acid to the drug salt and are consistent with the pH expected for solutions of the hydrochloride salt.

| SMILES | expected concentration of extracted triamcinolone acetonide in solution [1] [µM] | water solubility [2] [µM] | water solubility (in words) [3] | stability (in words) [4] | correlation in gacyclidine concentration per hydrochloric acid concentration used for elution ([5]; 0.05 to 3 mM hydrochloric acid in Ringer's solution, drug concentration by HPLC, FIG. 27) | pH of the eluted drug solution ([5]; Ringer's solution with 0.05 mM hydrochloric acid, highest pH) | pH of the eluted drug solution ([5]; Ringer's solution with 3 mM hydrochloric acid, lowest pH) | intercept at zero concentration of hydrochloric acid (gacyclidine concentration) ([5]; linear fit of eluted gacyclidine concentration vs hydrochloric acid concentration, FIG. 27) [mM] |
| --- | --- | --- | --- | --- | --- | --- | --- | --- |
| CC1(C)O[C@@H]2C[C@H]3[C@@H]4CCC5=CC(=O)C=C[C@]5(C)[C@@]4(F)[C@@H](O)C[C@]3(C)[C@]2(C(=O)CO)O1 [triamcinolone acetonide] | ≤ 40 | 40 (≈ 17.4 µg/mL) | – | – | – | – | – | – |
| C[C@H]1CCCC[C@@]1(c1cccs1)N1CCCCC1.Cl [hydrochloride salt of gacyclidine, gacyclidine hydrochloride] | – | – | highly water soluble | unstable at body temperature | – | – | – | – |
| CC1CCCCC1(c1cccs1)N1CCCCC1 (stereo not shown) [gacyclidine] | – | – | sparingly soluble in water | much more stable than its acidic form | 0.976±0.049 | 5.9 | 5.6 | 0.0014 ± 0.0061 |
